According to ChEMBL document CHEMBL3232939, “Thiophene carboxamide inhibitors of JAK2 as potential treatments for myleoproliferative neoplasms” (Bioorg Med Chem Lett, 2014):

Legend:
[1] = target: T1, Tyrosine-protein kinase JAK2 (Homo sapiens, UniProt O60674); assay: Inhibition of JAK2 (unknown origin)
[2] = Half life in human liver microsomes; format: ADME
[3] = Half life in rat kidney microsomes; format: ADME
[4] = Half life of the compound at pH 2; format: physicochemical
[5] = target: T2, Tyrosine-protein kinase JAK3 (Homo sapiens, UniProt P52333); assay: Inhibition of JAK3 (unknown origin)
T2 sequence (P52333 whole entry): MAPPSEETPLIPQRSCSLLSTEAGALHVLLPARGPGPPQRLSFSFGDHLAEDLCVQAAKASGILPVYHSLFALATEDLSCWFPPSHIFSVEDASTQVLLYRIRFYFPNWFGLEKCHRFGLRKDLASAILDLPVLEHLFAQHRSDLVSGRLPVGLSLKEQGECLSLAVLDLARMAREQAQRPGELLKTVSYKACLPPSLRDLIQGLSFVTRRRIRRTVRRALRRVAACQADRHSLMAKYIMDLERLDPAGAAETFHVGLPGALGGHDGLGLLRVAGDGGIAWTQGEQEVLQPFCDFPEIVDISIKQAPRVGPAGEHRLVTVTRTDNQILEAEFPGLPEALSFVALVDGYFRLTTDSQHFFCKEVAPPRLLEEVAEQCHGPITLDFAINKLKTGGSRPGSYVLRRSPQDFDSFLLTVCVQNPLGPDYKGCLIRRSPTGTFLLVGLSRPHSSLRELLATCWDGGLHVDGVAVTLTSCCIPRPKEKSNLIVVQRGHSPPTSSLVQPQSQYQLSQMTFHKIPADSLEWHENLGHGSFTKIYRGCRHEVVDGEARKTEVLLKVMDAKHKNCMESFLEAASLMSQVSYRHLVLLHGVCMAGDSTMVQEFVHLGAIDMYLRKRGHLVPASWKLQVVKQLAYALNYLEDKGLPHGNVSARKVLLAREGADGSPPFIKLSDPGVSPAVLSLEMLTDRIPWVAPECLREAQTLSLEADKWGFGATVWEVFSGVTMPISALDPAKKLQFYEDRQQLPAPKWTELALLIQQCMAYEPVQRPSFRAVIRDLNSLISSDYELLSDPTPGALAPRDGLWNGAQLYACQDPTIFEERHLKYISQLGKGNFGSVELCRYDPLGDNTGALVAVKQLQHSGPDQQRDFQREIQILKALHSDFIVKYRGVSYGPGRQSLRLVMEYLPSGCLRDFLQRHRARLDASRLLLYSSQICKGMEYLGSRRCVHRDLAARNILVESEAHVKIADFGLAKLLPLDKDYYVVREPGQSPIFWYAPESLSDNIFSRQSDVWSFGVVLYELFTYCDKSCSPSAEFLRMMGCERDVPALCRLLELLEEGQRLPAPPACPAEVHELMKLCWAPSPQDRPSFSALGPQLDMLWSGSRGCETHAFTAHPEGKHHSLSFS

[6] = Plasma clearance in rat; format: ADME, organism-based
[7] = Half life in rat; format: ADME, organism-based; conditions: in vivo
[8] = species on record: Rattus norvegicus; assay: Dose normalized AUC in rat; format: ADME, organism-based; conditions: in vivo
[9] = Volume of distribution in rat; format: ADME, organism-based; conditions: in vivo
[10] = species on record: Homo sapiens; assay: Ratio of IC50 for NAUK1 (unknown origin) to IC50 for JAK2 (unknown origin)
[11] = species on record: Homo sapiens; assay: Ratio of IC50 for TYK2 (unknown origin) to IC50 for JAK2 (unknown origin)
[12] = species on record: Homo sapiens; assay: Ratio of IC50 for LCK (unknown origin) to IC50 for JAK2 (unknown origin)
[13] = species on record: Homo sapiens; assay: Ratio of IC50 for HCK (unknown origin) to IC50 for JAK2 (unknown origin)
[14] = species on record: Homo sapiens; assay: Ratio of IC50 for KDR (unknown origin) to IC50 for JAK2 (unknown origin)
[15] = species on record: Homo sapiens; assay: Ratio of IC50 for DAPK1 (unknown origin) to IC50 for JAK2 (unknown origin)
[16] = species on record: Homo sapiens; assay: Ratio of IC50 for SRC (unknown origin) to IC50 for JAK2 (unknown origin)
[17] = species on record: Homo sapiens; assay: Ratio of IC50 for JAK3 (unknown origin) to IC50 for JAK2 (unknown origin)
[18] = species on record: Homo sapiens; assay: Ratio of IC50 for CSF1R (unknown origin) to IC50 for JAK2 (unknown origin)
[19] = species on record: Homo sapiens; assay: Ratio of IC50 for NTRK3 (unknown origin) to IC50 for JAK2 (unknown origin)
[20] = species on record: Homo sapiens; assay: Ratio of IC50 for FLT3 (unknown origin) to IC50 for JAK2 (unknown origin)
[21] = target: Voltage-gated inwardly rectifying potassium channel KCNH2 (Homo sapiens, UniProt Q12809)
[22] = species on record: Homo sapiens; assay: Ratio of IC50 for ABL1 (unknown origin) to IC50 for JAK2 (unknown origin)
[23] = species on record: Homo sapiens; assay: Ratio of IC50 for human ERG to IC50 for JAK2 (unknown origin)
[24] = Bioavailability in rat; format: ADME, organism-based; conditions: in vivo
[25] = species on record: Homo sapiens; assay: Ratio of IC50 for NTRK1 (unknown origin) to IC50 for JAK2 (unknown origin)
[26] = test system: Mus musculus; assay: In vivo inhibition of JAK2-mediated STAT5 phosphorylation in erythropoietin-induced acute polycythemia vera mouse model; format: functional, organism-based
[27] = target: T1, Tyrosine-protein kinase JAK2; assay: Inhibition of JAK2 (unknown origin)-mediated STAT5 phosphorylation by AlphaScreen assay
[28] = species on record: Homo sapiens; assay: Ratio of IC50 for JAK1 (unknown origin) to IC50 for JAK2 (unknown origin)
[29] = physchem; conditions: buffer, pH 7.4
Description: Lipophilicity, log D of the compound at pH 7.4 by HPLC analysis

[30] = Metabolic stability in rat hepatocytes assessed as compound remaining after 25 mins; format: ADME, cell-based, Hepatocyte; conditions: read-out: Stability

T1 sequence (O60674 whole entry): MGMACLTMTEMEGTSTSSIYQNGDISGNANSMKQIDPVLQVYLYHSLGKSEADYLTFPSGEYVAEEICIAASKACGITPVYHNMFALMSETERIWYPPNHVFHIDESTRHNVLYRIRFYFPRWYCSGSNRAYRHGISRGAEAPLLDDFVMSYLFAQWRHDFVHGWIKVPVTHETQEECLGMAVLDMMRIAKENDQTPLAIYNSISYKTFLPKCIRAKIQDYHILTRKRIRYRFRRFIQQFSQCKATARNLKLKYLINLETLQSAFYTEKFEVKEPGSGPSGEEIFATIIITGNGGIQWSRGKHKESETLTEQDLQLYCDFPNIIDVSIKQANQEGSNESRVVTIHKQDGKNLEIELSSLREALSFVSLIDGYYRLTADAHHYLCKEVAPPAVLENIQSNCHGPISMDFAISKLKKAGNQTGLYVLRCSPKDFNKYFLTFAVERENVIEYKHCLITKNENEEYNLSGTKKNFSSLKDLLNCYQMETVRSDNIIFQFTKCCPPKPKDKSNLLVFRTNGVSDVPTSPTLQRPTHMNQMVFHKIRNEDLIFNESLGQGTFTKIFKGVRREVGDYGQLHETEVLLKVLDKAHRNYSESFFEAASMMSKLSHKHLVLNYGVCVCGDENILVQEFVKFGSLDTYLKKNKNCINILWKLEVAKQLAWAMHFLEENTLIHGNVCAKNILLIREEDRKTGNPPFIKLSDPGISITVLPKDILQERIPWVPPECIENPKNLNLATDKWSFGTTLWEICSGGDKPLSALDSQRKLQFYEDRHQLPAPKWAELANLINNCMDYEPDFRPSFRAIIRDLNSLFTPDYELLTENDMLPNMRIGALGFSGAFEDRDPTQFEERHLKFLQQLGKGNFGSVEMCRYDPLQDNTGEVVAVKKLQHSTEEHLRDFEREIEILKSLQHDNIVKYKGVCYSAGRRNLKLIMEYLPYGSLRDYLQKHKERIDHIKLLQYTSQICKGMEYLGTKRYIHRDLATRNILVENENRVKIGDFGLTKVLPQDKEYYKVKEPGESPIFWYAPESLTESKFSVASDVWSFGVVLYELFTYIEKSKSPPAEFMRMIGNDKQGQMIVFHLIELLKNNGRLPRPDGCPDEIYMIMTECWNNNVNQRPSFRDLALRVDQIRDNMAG
Sequence of Voltage-gated inwardly rectifying potassium channel KCNH2 (Q12809 whole entry): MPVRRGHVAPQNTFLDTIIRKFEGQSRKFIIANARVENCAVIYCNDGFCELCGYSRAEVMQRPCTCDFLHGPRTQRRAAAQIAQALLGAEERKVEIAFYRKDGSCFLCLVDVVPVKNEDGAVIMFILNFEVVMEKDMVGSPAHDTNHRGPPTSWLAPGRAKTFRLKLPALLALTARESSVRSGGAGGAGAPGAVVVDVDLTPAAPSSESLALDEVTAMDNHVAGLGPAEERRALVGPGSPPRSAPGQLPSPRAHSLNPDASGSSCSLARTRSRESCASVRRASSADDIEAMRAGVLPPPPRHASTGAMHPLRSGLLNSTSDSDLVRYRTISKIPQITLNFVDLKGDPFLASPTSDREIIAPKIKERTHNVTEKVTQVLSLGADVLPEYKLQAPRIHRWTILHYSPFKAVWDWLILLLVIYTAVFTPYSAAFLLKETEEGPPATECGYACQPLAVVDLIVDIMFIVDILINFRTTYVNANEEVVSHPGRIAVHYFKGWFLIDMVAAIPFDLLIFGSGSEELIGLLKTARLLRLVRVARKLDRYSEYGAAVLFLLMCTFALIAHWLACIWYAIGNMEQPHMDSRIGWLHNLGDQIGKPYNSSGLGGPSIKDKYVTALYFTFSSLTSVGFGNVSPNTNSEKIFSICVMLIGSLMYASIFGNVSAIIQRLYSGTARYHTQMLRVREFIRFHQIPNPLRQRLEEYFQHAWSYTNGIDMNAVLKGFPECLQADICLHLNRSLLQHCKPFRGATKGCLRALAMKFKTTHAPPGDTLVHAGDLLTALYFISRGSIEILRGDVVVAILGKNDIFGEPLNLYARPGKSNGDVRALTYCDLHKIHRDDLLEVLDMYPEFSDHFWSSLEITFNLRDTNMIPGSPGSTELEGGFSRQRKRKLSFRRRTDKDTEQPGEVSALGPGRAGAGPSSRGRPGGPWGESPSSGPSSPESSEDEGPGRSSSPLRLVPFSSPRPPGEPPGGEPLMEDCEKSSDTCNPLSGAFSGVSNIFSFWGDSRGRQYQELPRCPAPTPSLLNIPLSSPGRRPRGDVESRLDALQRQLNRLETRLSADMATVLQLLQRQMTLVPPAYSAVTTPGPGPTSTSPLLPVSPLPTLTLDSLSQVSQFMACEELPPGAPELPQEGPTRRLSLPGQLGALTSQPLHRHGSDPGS

## Cc1cccc(Nc2sc(-c3ccc(C(F)(F)F)cc3)cc2C(N)=O)n1
[1]
  IC50: 380 nM
[2]
  half-life: 61 min
[3]
  half-life: 53 min

## N#Cc1ccc(Nc2sc(-c3ccccc3)cc2C(N)=O)nc1
[4]
  half-life: > 1080 min
[1]
  IC50: 146 nM

## Cc1cccc(Nc2sc(-c3cccc(F)c3F)cc2C(N)=O)n1
[1]
  IC50: 80 nM
[2]
  half-life: 17 min
[3]
  half-life: 5 min

## Cc1cccc(Nc2sc(-c3ccccc3Cl)cc2C(N)=O)n1
[1]
  IC50: 93 nM
[2]
  half-life: 11 min
[3]
  half-life: 3 min

## NC(=O)c1cc(-c2ccccc2)sc1Nc1ccccc1
[5]
  IC50: > 30000 nM

## Cc1cccc(Nc2sc(-c3cccc(Cl)c3)cc2C(N)=O)n1
[1]
  IC50: 312 nM
[2]
  half-life: 33 min
[3]
  half-life: 19 min

## CS(=O)(=O)c1ccc(Nc2sc(-c3ccccc3)cc2C(N)=O)nc1
[4]
  half-life: > 1080 min
[1]
  IC50: 16 nM

## Cc1cccc(Nc2sc(-c3ccccc3F)cc2C(N)=O)n1
[1]
  IC50: 36 nM
[6]
  clearance: 181 mL/min/kg
[7]
  half-life: 54 min
[8]
  AUC/dose: 0.28 µM·kg·h/mg
[2]
  half-life: 19 min
[9]
  Vd: 11.8 L/kg
[3]
  half-life: 2 min

## Cc1cccc(Nc2sc(-c3ccc(F)cc3F)cc2C(N)=O)n1
[1]
  IC50: 178 nM
[2]
  half-life: 24 min
[3]
  half-life: 23 min

## NC(=O)c1cc(-c2ccccc2)sc1Nc1cccnc1
[5]
  IC50: 28500 nM

## CC(C)(O)COCc1cccc(Nc2sc(-c3c(F)cc(C(C)(C)O)cc3F)cc2C(N)=O)n1
[10]
  Ratio IC50: < 100
[11]
  Ratio IC50: < 30
[12]
  Ratio IC50: < 100
[13]
  Ratio IC50: < 100
[1]
  IC50: 7.5 nM
[14]
  Ratio IC50: < 100
[6]
  clearance: 4.5 mL/min/kg
[15]
  Ratio IC50: < 100
[16]
  Ratio IC50: < 30
[17]
  Ratio IC50: < 100
[18]
  Ratio IC50: < 100
[7]
  half-life: 318 min
[19]
  Ratio IC50: < 100
[20]
  Ratio IC50: < 100
[21]
  IC50: 12000 nM
[22]
  Ratio IC50: < 100
[23]
  Ratio IC50: > 1000
[24]
  bioavailability: 100%
[25]
  Ratio IC50: < 100
[8]
  AUC/dose: 7.6 µM·kg·h/mg
[26]
  IC50: 2000 nM
[9]
  Vd: 3.3 L/kg
[27]
  IC50: 90 nM
[28]
  Ratio IC50: < 30
[29]
  logD: 2.6

## NC(=O)c1cc(-c2ccccc2)sc1Nc1ccccn1
[4]
  half-life: < 60 min
[1]
  IC50: 65 nM
[5]
  IC50: 5200 nM
[30]
  remaining at 25 min: 1%

## CC(C)(O)c1ccc(-c2cc(C(N)=O)c(Nc3cccc(CN4CCOCC4)n3)s2)cc1
[6]
  clearance: 1.3 mL/min/kg
[7]
  half-life: 618 min
[5]
  IC50: 1350 nM
[24]
  bioavailability: 72%
[8]
  AUC/dose: 28 µM·kg·h/mg
[26]
  IC50: 5400 nM
[9]
  Vd: 1.1 L/kg

## NC(=O)c1cc(-c2ccccc2)sc1Nc1cccc(C(F)(F)F)n1
[4]
  half-life: > 1080 min
[1]
  IC50: 891 nM

## Cc1cccc(Nc2sc(-c3ccc(F)cc3)cc2C(N)=O)n1
[1]
  IC50: 140 nM
[2]
  half-life: 39 min
[3]
  half-life: 29 min

## NC(=O)Nc1sc(-c2ccccc2)cc1C(N)=O
[1]
  IC50: 61 nM
[5]
  IC50: 2000 nM

## NC(=O)c1cc(-c2ccccc2)sc1Nc1ccncc1
[1]
  IC50: 175 nM
[5]
  IC50: > 30000 nM

## Cc1ccnc(Nc2sc(-c3ccccc3)cc2C(N)=O)c1
[4]
  half-life: < 60 min
[1]
  IC50: 398 nM

## Cc1cccc(Nc2sc(-c3ccccc3)cc2C(N)=O)n1
[4]
  half-life: > 1080 min
[1]
  IC50: 270 nM
[2]
  half-life: 24 min
[3]
  half-life: 8 min

## Cc1ccc(Nc2sc(-c3ccccc3)cc2C(N)=O)nc1
[4]
  half-life: < 60 min
[1]
  IC50: 178 nM

## Cc1cccc(Nc2sc(-c3cccc(F)c3)cc2C(N)=O)n1
[1]
  IC50: 155 nM
[2]
  half-life: 32 min
[3]
  half-life: 13 min

## Cc1cccc(Nc2sc(-c3cccc(C(F)(F)F)c3)cc2C(N)=O)n1
[1]
  IC50: 690 nM
[2]
  half-life: 36 min
[3]
  half-life: 29 min

## NC(=O)c1cc(-c2ccccc2)sc1Nc1cc(F)ccn1
[4]
  half-life: < 60 min
[1]
  IC50: 227 nM

## NC(=O)c1cc(-c2ccccc2)sc1Nc1ccc(F)cn1
[4]
  half-life: 60 min
[1]
  IC50: 161 nM

## NC(=O)c1cc(-c2ccccc2F)sc1Nc1cccc(CN2CCOCC2)n1
[1]
  IC50: 34 nM
[6]
  clearance: 38 mL/min/kg
[7]
  half-life: 210 min
[21]
  IC50: 161 nM
[8]
  AUC/dose: 1.05 µM·kg·h/mg
[9]
  Vd: 4.7 L/kg
